Legend:
[1] = Molar enthalpy of transition or fusion; conditions: Crystal; Resistive pulse heating
[2] = 101.33 kPa, Resistive pulse heating

[V] [vanadium]
Conditions | Molar enthalpy of transition or fusion [kcal/mol]
[1] | 4.94

thermal conductivity [W/m/K], [2]
Conditions | Crystal | Liquid
2199 K | 41.35 | 39.08
2250 K | – | 39.8
2300 K | – | 40.49
2350 K | – | 41.17
2400 K | – | 41.82
2450 K | – | 42.46
2500 K | – | 43.08
2550 K | – | 43.68
2600 K | – | 44.26
2650 K | – | 44.83
2700 K | – | 45.37
2750 K | – | 45.91
2800 K | – | 46.42
2850 K | – | 46.91
2900 K | – | 47.39
